Test results from patent US8048869B2, “Pharmaceutical composition for use in hormone replacement therapy” (Pantarhei Bioscience B.V., priority 2001, dated 2011).

What was measured:
[1] = target: T1, human sex Hormone Binding Globulin (SHBG) (Homo sapiens, UniProt P04278); assay: Competitive steroid-binding assay, SHBG; settings: [3H]DHT or [3H]estradiol as labeled ligands (FIG. 6)
T1 construct: Human SHBG was purified from transgenic mouse serum, as described previously; from tissue; host or cells: serum of mice transgenic for human SHBG
T1 sequence (P04278 30-402): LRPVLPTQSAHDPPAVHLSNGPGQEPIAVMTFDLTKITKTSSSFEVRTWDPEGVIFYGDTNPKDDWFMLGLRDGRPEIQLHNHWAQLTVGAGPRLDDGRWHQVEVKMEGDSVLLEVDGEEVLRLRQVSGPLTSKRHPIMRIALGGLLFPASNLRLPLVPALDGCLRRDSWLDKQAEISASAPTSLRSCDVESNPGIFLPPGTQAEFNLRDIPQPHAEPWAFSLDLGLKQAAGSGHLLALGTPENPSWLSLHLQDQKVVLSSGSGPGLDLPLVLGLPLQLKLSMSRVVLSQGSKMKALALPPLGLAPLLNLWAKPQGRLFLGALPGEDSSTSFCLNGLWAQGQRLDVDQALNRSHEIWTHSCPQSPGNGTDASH
Description: Human SHBG was treated for 30 min at room temperature with a dextran-coated charcoal (DCC) suspension in phosphate buffered saline (PBS) to remove any steroid ligand. After centrifugation (2,000×g for 10 min) to sediment the DCC, the supernatant containing the human SHBG was diluted in PBS to a concentration of 1 nM based on its steroid binding capacity.
After incubation for 1 h at room temperature the. reaction mixtures were placed in an ice bath for a further 15 muin. […] The average amounts of [^3H]labeled ligands bound to SHBG at each concentration of competitor (B) were expressed as a percentage of the average amounts of [^3H]labeled ligands bound to SHBG in the absence of competitor (B0), and were plotted against the concentration of competitor in each assay tube.

OVX-rats = assay: Indentation test of distal femur (bone biomechanical strength), OVX rat; format: in vivo; settings: 4 weeks; for Energy / Maximum load / Stiffness / Ultimate strength: po, distal femur
Description: The ovariectomized aged rat was used as a model for the human disease osteoporosis. This is an established animal model, recommended by the United States Food and Drug Administration (FDA), to evaluate and assess potential agents for osteoporosis prevention and therapy. The anti-resorptive efficacy of estetrol (E4) was tested by ex vivo measuring total and trabecular bone mineral density and bone strength after 4 weeks of treatment at necropsy. 17α-ethinyl-estradiol (EE) and vehicle (1% ethanol/arachidis oil) served as controls in this bioassay.
Three months old female Sprague-Dawley rats were either sham-operated (Sham) or ovariectomized (OVX) one day prior to commencement of the dosing study. Animals were anesthetized using a ketamine/xylazine anesthetic mixture and underwent a bilateral ovariectomy or were sham-treated. A section of hair on the dorsal surface was shaved and an incision made overlying the lumbar region of the spine. The skin was separated from the underlying fascia so that a second incision could be made through the abdominal musculature approximately caudal to the kidneys. The ovaries were then exteriorized and removed and the musculature was closed with a single suture. The skin incision was closed using surgical staples.
Ten animals per treatment group were orally dosed once per day for four consecutive weeks. The dosing commenced 1 day after surgical removal of the ovaries and was administered by oral gavage using a syringe and stainless steel gavage needle at doses of 0.1 mg/kg /day EE, or either 2.5, 0.5 or 0.1 mg/kg/day E4. Vehicle control was daily administered to one group of OVX-animals and sham-operated rats. After treatment, anesthetized rats were subjected to cardiac puncture and asphyxiated by CO2 inhalation. Tibiae and femura were removed, cleaned of soft-tissue and fixed and stored in 70% ethanol/saline at 4° C. (tibia) or saline at 4° C. (femura) until fuirther analysis.
Ex vivo evaluation of bone biomechanical strength was performed with an indentation test at the distal femura. Prior to mechanical testing femura were rinsed in cold saline and carefully cleaned of any remaining adherent soft tissue. A 3-mm segment of the distal femoral metaphysis was cut directly proximal to the femoral condyle with a low-speed diamond saw under constant saline irrigation. The load was applied with a cylindrical indenter (with a flat testing face of 1.6 mm diameter) to the center of marrow cavity on the distal face of the segment. The indenter was allowed to penetrate the cavity at a constant displacement of 6 mm/min to a depth of 2 mm before load reversal.
The maximum load, stiffness and energy absorbed were determined from load displacement curves. Ultimate strength was calculated by dividing the maximum load by the indenter area. Furthermore, mean ultimate strength values are depicted in FIG. 2. […] Reductions in maximum load, stiffness, energy and ultimate strength were −68%, −68%, −27% and −68%, respectively, clearly accompanying the bone mineral density loss in estrogen deficient rats.

immature rat uterus = settings: subcutaneously administered; cited from earlier work
ovariectomized rats = assay: Vaginal cornification bioassay in ovariectomized rats, 7 days, sc or po; format: in vivo, rat
Excerpt: Uterine weight increase in the rat is more commonly used as a measure of estrogenicity. […] In the early 1920s it was discovered that follicular fluid from the pig ovary contained a factor(s) that caused cornification/keratinization of the vaginal epithelium in the rat (Allen and Doisy, 1923, JAMA, 81, 819-821; Allen and Doisy, 1924, Am. J. Physiol., 69, 577-588). The so-called vaginal cornification response in rats subsequently provided a bioassay for testing estrogenicity. Vaginal epithelial cornification/keratinization in ovariectomized rats can be produced only by compounds considered to be true estrogens (Jones et al, 1973, Fert. Steril. 24, 284-291). […] Adult intact female CD rats were ovariectomized to induce estrogen deficiency. […] Castrate vaginal smears are indicative that complete ovariectomy was achieved. Treatment commenced following completion of the 7 days of smearing (day 0=first day of dosing). Animals were dosed, once daily for 7 consecutive days. Daily vaginal lavages continued to be obtained for 7 days after dosing was initiated in order to detect vaginal cornification, as an indication of an estrogenic response. A drop of vaginal washings was placed on a glass slide and examined by light microscopy to detect the presence or absence of cornified epithelial cells. Vaginal lavages were obtained prior to dosing on days 0-6 and prior to necropsy on day 7. […]

nonpregnant ewes = settings: intravenously administered; cited from earlier work

**Q.** For `C[C@]12CC[C@@H]3c4ccc(O)cc4CC[C@H]3[C@@H]1[C@@H](O)[C@@H](O)[C@@H]2O` [E4, 1,3,5 (10)-estratrien-3,15α,16α,17β-tetrol], which “relative binding affinity for human SHBG” value [1] is on record?
**A.** does not bind at all

**Q.** And the “effect on declines in maximum load, stiffness, energy and ultimate strength” value (OVX-rats; oral treatment, dose-dependent)?
**A.** prevented the declines in maximum load, stiffness, energy and ultimate strength

**Q.** And the Energy (OVX-rats; 0.1 mg/kg/day)?
**A.** 0.09 mJ

**Q.** And the Maximum load (OVX-rats; 0.1 mg/kg/day)?
**A.** 1.50 N

**Q.** And the Stiffness (OVX-rats; 0.1 mg/kg/day)?
**A.** 28.00 N/mm

**Q.** And the Ultimate strength (OVX-rats; 0.1 mg/kg/day)?
**A.** 0.80 N/mm2

**Q.** What about the Energy (OVX-rats; 0.5 mg/kg/day) of the same molecule?
**A.** 0.31 mJ

**Q.** What about the Maximum load (OVX-rats; 0.5 mg/kg/day) of the same molecule?
**A.** 7.25 N

**Q.** What about the Stiffness (OVX-rats; 0.5 mg/kg/day) of the same molecule?
**A.** 132.57 N/mm

**Q.** What about the Ultimate strength (OVX-rats; 0.5 mg/kg/day) of the same molecule?
**A.** 3.85 N/mm2

**Q.** What about the uterotrophic activity (immature rat uterus) of the same molecule?
**A.** very weak uterotrophic activity

**Q.** And the “Number of Rats Exhibiting Estrogenic Response/Number of Rats Treated” value (ovariectomized rats; 1.0 mg/kg/day, Day 7, 1 mg/kg/day)?
**A.** all rats

**Q.** What about the “Number of Rats Exhibiting Estrogenic Response/Number of Rats Treated” value (ovariectomized rats; 3.0 mg/kg/day, Day 7, 3 mg/kg/day) of the same molecule?
**A.** all rats

**Q.** And the “potency in uterine vasodilation relative to estriol and 17β-estradiol” value (nonpregnant ewes)?
**A.** 15 to 30 times less potent
